pEC50: −log10 of the molar value.
Experiments:
[1] = target: S1P1 receptor (Homo sapiens, UniProt P21453); experiment: 35S-GTPyS binding assay; format: biochemical; details: membranes, 90 min at room temperature
Experimental: The effect of the compounds was measured using a 35S-GTPyS binding assay. Briefly, membranes were incubated in a buffer containing 20 mM HEPES pH 7.4, 100 mM NaCl, 10 mM MgCl2, 10µM GDP, 50µg/ml saponin and 0.2% fatty acid-free BSA at various concentrations (0.1nM-10µM) and 0.1nM 35S-GTPyS. 10µM […] was used as 100% maximum efficacy. The assay was incubated for 90 min at room temperature with gentle mixing, and terminated by filtrating the reaction mixture through GF/C filter plates using the Manifold Filtration System. The filters were immediately washed with sodium phosphate pH 7.4 buffers. After drying the filter plates scintillant liquid were added to each well and 35S-GTPyS binding was measured on a Trilux Scintillation Counter.

[2] = Acute hepatotoxicity assay: plasma liver markers (ALT, AST, TBIL) in mice; format: in vivo, Swiss mice; details: for ALT / AST / TBil: plasma, 24 h after single intraperitoneal administration; for hepatotoxicity: single intraperitoneal administration, liver markers 24 h later, compared to vehicle-treated group
Experimental: Acute hepatotoxicity assays were performed in Swiss mice. Animals received a single administration of either vehicle, or Fingolimod or a compound of the present invention (compounds from the list indicated previously) by intraperitoneal route. Twenty-four hours later, animals were sacrificed and the levels of liver markers ALT (alanine aminotransferase), AST (aspartate aminotransferase), and TBIL (total bilirubin) in plasma were determined. An increase in liver markers in this model indicates the potential of that compound to cause liver toxicity in humans at lower doses following longer exposures. Table 2: Plasma levels of liver markers of mice 24 h after treatment with either vehicle or test compounds No.142, No.171 or fingolimod.

[3] = in vivo; details: Wistar, rat, iv, 1 mg/kg
Experimental: Rats were administered with 1 mg/kg of test compounds by intraveneous route to Wistar rats. Blood samples were collected from retroorbital plexus at several time points after administration and plasma levels of compounds were quantified by MS-HPLC.

[4] = system: lymphocytes in blood; experiment: Recovery of lymphopenia in rats after a single oral administration; format: in vivo; details: Wistar rats, single oral dose that caused maximal lymphopenia
Experimental: Test compounds were administered by oral route to Wistar rats at a dose of each compound that caused maximal lymphopenia. At several times after administration, animals were anestesized and blood extracted from retroorbital plexus and collected into heparinized tubes. Total lymphocyte numbers were determined using a Sysmex K-800 haemocytometer. [formula]

S1P1 receptor, sequence (P21453 whole entry): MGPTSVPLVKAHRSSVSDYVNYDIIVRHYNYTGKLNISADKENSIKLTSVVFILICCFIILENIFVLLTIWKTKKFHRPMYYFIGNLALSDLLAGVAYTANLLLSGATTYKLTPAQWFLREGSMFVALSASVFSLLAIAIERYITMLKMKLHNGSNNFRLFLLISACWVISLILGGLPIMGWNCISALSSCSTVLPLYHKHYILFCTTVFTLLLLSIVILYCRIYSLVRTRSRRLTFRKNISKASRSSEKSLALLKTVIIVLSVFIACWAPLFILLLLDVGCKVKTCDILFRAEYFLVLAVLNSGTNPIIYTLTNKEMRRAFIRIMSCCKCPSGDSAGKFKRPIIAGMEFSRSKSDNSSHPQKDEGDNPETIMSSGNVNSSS

pEC50 [1]	AUC(0-t) [3] [ng·h/mL]	Cmax [3] [ng/mL]	Tmax [3] [min]	half-life [3] [h]	SMILES	ALT ([2]; 100 mg/kg) [IU/L]	AST ([2]; 100 mg/kg) [IU/L]	TBil ([2]; 100 mg/kg) [mg/dL]	hepatotoxicity [2]	ALT ([2]; 30 mg/kg) [IU/L]	AST ([2]; 30 mg/kg) [IU/L]	TBil ([2]; 30 mg/kg) [mg/dL]	time after administration to recover lymphocytes in blood [4] [h]
8.06	2630	824	6	3.5	Cc1cc(-c2noc(-c3nn(C)c4c3CCC(C)(C)C4)n2)cc(C)c1CCN1CCC(C(=O)O)CC1 [Compound 142, 1-(2-{2,6-dimethyl-4-[5-(1,6,6-trimethyl-4,5,6,7-tetrahydro-1H-indazol-3-yl)-1,2,4-oxadiazol-3-yl]phenyl}ethyl)piperidine-4-carboxylic acid]	45 ± 5	87 ± 9	0.3 ± 0.1	lack of hepatotoxicity	–	–	–	–
7.73	6230	986	6	8.2	Cn1nc(-c2nc(-c3ccc(CCN4CCC(C(=O)O)CC4)c(C(F)(F)F)c3)no2)c2c1CC(C)(C)CC2 [Compound 171, 1-(2-{2-(trifluoromethyl)-4-[5-(1,6,6-trimethyl-4,5,6,7-tetrahydro-1H-indazol-3-yl)-1,2,4-oxadiazol-3-yl]phenyl}ethyl)piperidine-4-carboxylic acid]	42 ± 13	66 ± 7	0.5 ± 0.04	lack of hepatotoxicity	–	–	–	–
–	279	50.5	6	26.1	CCCCCCCCc1ccc(CCC(N)(CO)CO)cc1 [Fingolimod, reference compound]	355 ± 60	589 ± 73	0.16 ± 0.02	high hepatotoxicity	59 ± 62	354 ± 70	0.12 ± 0.01	144

From patent publication EP2455080A1, “S1P1 receptor agonists for use in the treatment of multiple sclerosis” (Almirall, S.A., priority 2010, dated 2012)
